Test results published in ChEMBL document CHEMBL5634148, “Synthesis and evaluation of novel pleuromutilin derivatives targeting the 50S ribosomal subunit for antibacterial ability” (Eur J Med Chem, 2023).
Converted amounts (≈) assume the structure as drawn. The source made the active and inactive calls. No cut-off for these calls is given here.

How the values were obtained:
[1] = Cytotoxicity against human HepG2 cells assessed as cell viability incubated for 6 hrs by CCK8 assay; assay type: toxicity, cell-based
[2] = Toxicity in Wistar rat assessed as capillary congestion in lungs at 2000 mg/kg, po measured for 14 days by H and E staining based analysis; assay type: organism-based; conditions: in vivo, 336 h, time 14 day
[3] = test system: Staphylococcus epidermidis; assay: Antibacterial activity against methicillin-resistant Staphylococcus epidermidis ATCC 51625 assessed as bacterial growth inhibition incubated for 18 to 24 hrs by NCCLS based assay; assay type: functional; conditions: time 18-24 hrs
Staphylococcus aureus [4] = assay: Drug resistance against Staphylococcus aureus assessed as fold increase in MIC measured after 21 passages relative to control; assay type: functional
[5] = Toxicity in neutropenic Balb/c mouse model infected with methicillin-resistant Staphylococcus aureus assessed as animal survival at 40 mg/kg, iv measured for 7 days; assay type: organism-based; conditions: in vivo, 168 h, time 7 day
[6] = Toxicity in Wistar rat assessed as relative liver weight at 2000 mg/kg, po measured after 14 days (reference value: 4.37 +/- 0.18 %); assay type: organism-based; conditions: in vivo, 336 h, time 14 day
[7] = Toxicity in Wistar rat assessed as proliferation of oval cells in liver at 2000 mg/kg, po measured for 14 days by H and E staining based analysis; assay type: organism-based; conditions: in vivo, 336 h, time 14 day
[8] = Toxicity in Wistar rat assessed as trembling at 2000 mg/kg, po measured for 24 hrs; assay type: organism-based; conditions: in vivo
[9] = Toxicity in Wistar rat assessed as relative heart weight at 2000 mg/kg, po measured after 14 days (reference value: 0.36 +/- 0.03 %); assay type: organism-based; conditions: in vivo, 336 h, time 14 day
[10] = Toxicity in Wistar rat assessed as relative spleen weight at 2000 mg/kg, po measured after 14 days (reference value: 0.20 +/- 0.07 %); assay type: organism-based; conditions: in vivo, 336 h, time 14 day
Staphylococcus aureus [11] = assay: Antibacterial activity against methicillin-resistant Staphylococcus aureus infected in neutropenic Balb/c mouse model assessed as reduction in bacterial load in liver at 40 mg/kg, iv measured after 5 days; assay type: functional, organism-based; conditions: time 5.0 day
Pasteurella multocida = assay: Antibacterial activity against Pasteurella multocida CVCC 1659 assessed as bacterial growth inhibition incubated for 18 to 24 hrs by NCCLS based assay; assay type: functional; conditions: time 18-24 hrs

C=C[C@]1(C)C[C@@H](OC(=O)CSc2ncnc(N(C)C)n2)[C@]2(C)[C@H](C)CC[C@]3(CCC(=O)[C@H]32)[C@@H](C)[C@@H]1O
CC50 at 6 h [1]: 84.6 µM
Activity [2]: Toxic
MIC [3]: 0.125 mg/L (≈ 0.242 µM)
fold change (FC) (Staphylococcus aureus [4]): 16
Activity [5]: 70%
Activity [6]: 3.99%
Activity [7]: Toxic
Activity [8]: Toxic
Activity [9]: 0.34%
Activity [10]: 0.26%
Activity (Staphylococcus aureus [11]): Active
MIC (Pasteurella multocida): ≥ 64 mg/L
